Blank lines part the entries; values can stand above or below the compound they belong to.
What was measured:
HUVEC = assay: Antiproliferative activity against VEGF-stimulated HUVEC; details: Homo sapiens
L2987 [1] = assay: Antiproliferative activity against L2987 cells; details: Homo sapiens
[2] = biological target: Voltage-gated inwardly rectifying potassium channel KCNH2 (Homo sapiens, UniProt Q12809); assay: Inhibition of human ERG expressed in HEK293 cells; type: cell-based
Rattus norvegicus = assay: AUC in Sprague-Dawley rat at 50 mg/kg, po; type: ADME, organism-based, Plasma; design: dose 50 mg/kg, route oral; details: in vivo
L2987 [3] = assay: Inhibition of tumor growth in Athymic mouse xenografted with L2987 at 90 mg/kg after 14 days; type: functional, Homo sapiens; details: L2987, 336 h, read-out: TGI
[4] = Volume of distribution in Sprague-Dawley rat at 10 mg/kg, iv; type: ADME, organism-based; design: dose 10 mg/kg, route intravenous; details: in vivo, read-out: Vss
[5] = biological target: Vascular endothelial growth factor receptor 2 (Mus musculus) (UniProt P35918); assay: Inhibition of FLK1
[6] = biological target: Protein kinase C delta type (Homo sapiens, UniProt Q05655); assay: Inhibition of PKCdelta
[7] = Bioavailability in Balb/C mouse at 90 mg/kg, po; type: ADME, organism-based; details: in vivo
[8] = biological target: Tyrosine-protein kinase SYK (Homo sapiens, UniProt P43405); assay: Inhibition of Syk
[9] = biological target: MAP kinase-activated protein kinase 2 (Homo sapiens, UniProt P49137); assay: Inhibition of MAPKAPK2
MAP kinase p38 = MAP kinase p38 (Homo sapiens, UniProt O15264+Q15759+Q16539+P53778); assay: Inhibition of p38; type: protein assay
[10] = biological target: Cyclin-dependent kinase 2 (Homo sapiens, UniProt P24941); assay: Inhibition of CDK2
[11] = Cmax in Balb/C mouse at 90 mg/kg, po; type: ADME, organism-based; design: dose 90 mg/kg, route oral; details: in vivo
[12] = Clearance in Sprague-Dawley rat at 10 mg/kg, iv; type: ADME, organism-based; design: dose 10 mg/kg, route intravenous; details: in vivo
HCT-116 [13] = assay: Inhibition of tumor growth in Athymic mouse xenografted with HCT116 at 12.5 mg/kg after 14 days; type: functional, Homo sapiens; details: HCT-116, 336 h, read-out: TGI
[14] = Mean residence time in Balb/C mouse at 90 mg/kg, po; type: ADME, organism-based; design: dose 90 mg/kg, route oral; details: in vivo
[15] = Clearance in cynomolgus monkey at 1 mg/kg, iv; details: in vivo
[16] = Bioavailability in cynomolgus monkey at 5 mg/kg, po; type: ADME, organism-based, Macaca fascicularis; details: in vivo
L2987 [17] = assay: Inhibition of tumor growth in Athymic mouse xenografted with L2987 at 180 mg/kg after 14 days; type: functional, Homo sapiens; details: L2987, 336 h, read-out: TGI
[18] = biological target: Serine/threonine-protein kinase AKT (Homo sapiens, UniProt P31751+Q9Y243+P31749); assay: Inhibition of AKT; type: protein assay
[19] = biological target: Protein kinase C zeta type (Homo sapiens, UniProt Q05513); assay: Inhibition of PKCzeta
[20] = Tmax in Balb/C mouse at 90 mg/kg, po; type: ADME, organism-based; design: dose 90 mg/kg, route oral; details: in vivo
[21] = biological target: Inhibitor of NF-kappa-B kinase (IKK) (Homo sapiens, UniProt O14920+O15111+Q9Y6K9); assay: Inhibition of IKK; type: protein-complex assay
[22] = Cmax in Sprague-Dawley rat at 50 mg/kg, po; type: ADME, organism-based; design: dose 50 mg/kg, route oral; details: in vivo
[23] = Volume of distribution in Balb/C mouse at 10 mg/kg, iv; type: ADME, organism-based; design: dose 10 mg/kg, route intravenous; details: in vivo, read-out: Vss
HCT-116 [24] = assay: Inhibition of tumor growth in Athymic mouse xenografted with HCT116 at 50 mg/kg after 14 days; type: functional, Homo sapiens; details: HCT-116, 336 h, read-out: TGI
[25] = Mean residence time in cynomolgus monkey at 5 mg/kg, po; type: ADME, organism-based, Macaca fascicularis; design: dose 5 mg/kg, route oral; details: in vivo
[26] = biological target: Protein kinase C eta type (Homo sapiens, UniProt P24723); assay: Inhibition of PKCeta
Cynomolgus monkey [27] = assay: AUC in cynomolgus monkey at 5 mg/kg, po; type: ADME, organism-based, Macaca fascicularis, Plasma; design: dose 5 mg/kg, route oral; details: in vivo
[28] = biological target: Tyrosine-protein kinase ITK/TSK (Homo sapiens, UniProt Q08881); assay: Inhibition of Itk
[29] = Bioavailability in Sprague-Dawley rat at 50 mg/kg, po; type: ADME, organism-based; details: in vivo
[30] = biological target: Proto-oncogene tyrosine-protein kinase Src (Homo sapiens, UniProt P12931); assay: Inhibition of Src
[31] = Tmax in cynomolgus monkey at 5 mg/kg, po; type: ADME, organism-based, Macaca fascicularis; design: dose 5 mg/kg, route oral; details: in vivo
[32] = Half life in cynomolgus monkey at 5 mg/kg, po; type: ADME, organism-based, Macaca fascicularis; design: dose 5 mg/kg, route oral; details: in vivo
[33] = biological target: Insulin-like growth factor 1 receptor (Homo sapiens, UniProt P08069); assay: Inhibition of IGF1R
HCT-116 [34] = assay: Inhibition of tumor growth in Athymic mouse xenografted with HCT116 at 25 mg/kg after 14 days; type: functional, Homo sapiens; details: HCT-116, 336 h, read-out: TGI
SRSF protein kinase 1 = SRSF protein kinase 1 (Homo sapiens, UniProt Q96SB4); assay: Inhibition of SRPK1
Mus musculus = assay: AUC (0-24h) in Balb/C mouse at 90 mg/kg, po; type: ADME, organism-based, Plasma; design: time < 24 hr, dose 90 mg/kg, route oral; details: in vivo
[35] = biological target: Receptor tyrosine-protein kinase erbB-2 (Homo sapiens, UniProt P04626); assay: Inhibition of Her2
L2987 [36] = assay: Inhibition of tumor growth in Athymic mouse xenografted with L2987 at 60 mg/kg after 14 days; type: functional, Homo sapiens; details: L2987, 336 h, read-out: TGI
L2987 [37] = assay: Inhibition of tumor growth in Athymic mouse xenografted with L2987 at 25 mg/kg after 14 days; type: functional, Homo sapiens; details: L2987, 336 h, read-out: TGI
[38] = biological target: Tyrosine-protein kinase JAK3 (Homo sapiens, UniProt P52333); assay: Inhibition of JAK3
[39] = biological target: Protein kinase C alpha type (Homo sapiens, UniProt P17252); assay: Inhibition of PKCalpha
[40] = biological target: Vascular endothelial growth factor receptor 2 (Homo sapiens, UniProt P35968)
[41] = Mean residence time in Sprague-Dawley rat at 50 mg/kg, po; type: ADME, organism-based; design: dose 50 mg/kg, route oral; details: in vivo
[42] = biological target: Dual specificity mitogen-activated protein kinase kinase 1 (Homo sapiens, UniProt Q02750); assay: Inhibition of MEK
L2987 [43] = assay: Inhibition of tumor growth in Athymic mouse xenografted with L2987 at 50 mg/kg after 14 days; type: functional, Homo sapiens; details: L2987, 336 h, read-out: TGI
[44] = Cmax in cynomolgus monkey at 5 mg/kg, po; type: ADME, organism-based, Macaca fascicularis; design: dose 5 mg/kg, route oral; details: in vivo
Cynomolgus monkey [45] = assay: Volume of distribution in cynomolgus monkey at 1 mg/kg, iv; details: in vivo
[46] = biological target: Mast/stem cell growth factor receptor Kit (Homo sapiens, UniProt P10721); assay: Inhibition of c-kit
[47] = biological target: Fibroblast growth factor receptor 1 (Homo sapiens, UniProt P11362); assay: Inhibition of FGFR1
[48] = biological target: Platelet-derived growth factor receptor beta (Homo sapiens, UniProt P09619); assay: Inhibition of PDGFR beta
[49] = Half life in Balb/C mouse at 90 mg/kg, po; type: ADME, organism-based; design: dose 90 mg/kg, route oral; details: in vivo
[50] = Half life in Sprague-Dawley rat at 50 mg/kg, po; type: ADME, organism-based; design: dose 50 mg/kg, route oral; details: in vivo
[51] = biological target: Vascular endothelial growth factor receptor 1 (Homo sapiens, UniProt P17948); assay: Inhibition of VEGFR1
[52] = Tmax in Sprague-Dawley rat at 50 mg/kg, po; type: ADME, organism-based; design: dose 50 mg/kg, route oral; details: in vivo
[53] = Clearance in Balb/C mouse at 10 mg/kg, iv; type: ADME, organism-based; design: dose 10 mg/kg, route intravenous; details: in vivo
[54] = biological target: Glycogen synthase kinase-3 (Homo sapiens, UniProt P49840+P49841); assay: Inhibition of GSK3; type: protein assay

Sequence of Vascular endothelial growth factor receptor 2 (P35968 whole entry): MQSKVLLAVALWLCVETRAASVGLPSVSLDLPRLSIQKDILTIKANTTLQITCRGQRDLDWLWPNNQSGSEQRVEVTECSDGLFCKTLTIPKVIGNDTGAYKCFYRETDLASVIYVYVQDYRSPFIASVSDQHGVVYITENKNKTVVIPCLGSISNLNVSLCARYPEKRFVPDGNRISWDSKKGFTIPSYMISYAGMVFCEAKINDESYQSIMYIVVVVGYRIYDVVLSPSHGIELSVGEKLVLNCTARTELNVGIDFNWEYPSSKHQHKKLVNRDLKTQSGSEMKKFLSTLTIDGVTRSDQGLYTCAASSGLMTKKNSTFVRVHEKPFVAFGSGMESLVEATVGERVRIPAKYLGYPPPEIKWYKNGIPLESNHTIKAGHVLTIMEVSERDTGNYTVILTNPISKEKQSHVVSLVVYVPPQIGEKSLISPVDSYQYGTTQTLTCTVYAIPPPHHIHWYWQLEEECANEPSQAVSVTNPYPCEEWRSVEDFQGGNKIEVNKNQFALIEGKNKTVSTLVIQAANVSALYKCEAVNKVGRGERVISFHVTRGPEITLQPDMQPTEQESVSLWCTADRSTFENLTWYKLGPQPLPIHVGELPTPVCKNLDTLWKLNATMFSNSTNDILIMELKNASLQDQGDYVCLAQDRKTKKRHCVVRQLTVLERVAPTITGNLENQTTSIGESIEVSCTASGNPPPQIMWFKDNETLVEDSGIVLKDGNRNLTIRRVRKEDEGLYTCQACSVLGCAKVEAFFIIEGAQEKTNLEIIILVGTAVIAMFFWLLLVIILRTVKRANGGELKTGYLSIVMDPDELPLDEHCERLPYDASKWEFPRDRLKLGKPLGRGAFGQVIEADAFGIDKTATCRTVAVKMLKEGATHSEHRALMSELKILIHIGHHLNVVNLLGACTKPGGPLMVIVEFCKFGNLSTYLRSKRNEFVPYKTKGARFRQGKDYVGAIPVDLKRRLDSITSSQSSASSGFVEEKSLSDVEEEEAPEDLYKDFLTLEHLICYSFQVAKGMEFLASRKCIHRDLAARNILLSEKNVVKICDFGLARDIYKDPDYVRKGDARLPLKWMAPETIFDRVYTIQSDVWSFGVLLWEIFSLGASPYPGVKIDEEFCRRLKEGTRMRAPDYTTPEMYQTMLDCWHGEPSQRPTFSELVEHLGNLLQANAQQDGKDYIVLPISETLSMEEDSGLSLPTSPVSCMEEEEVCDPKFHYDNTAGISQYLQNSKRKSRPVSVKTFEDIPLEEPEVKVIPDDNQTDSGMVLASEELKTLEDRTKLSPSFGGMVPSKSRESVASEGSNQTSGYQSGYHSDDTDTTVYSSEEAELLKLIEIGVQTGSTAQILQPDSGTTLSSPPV
Sequence of Protein kinase C zeta type (Q05513 whole entry): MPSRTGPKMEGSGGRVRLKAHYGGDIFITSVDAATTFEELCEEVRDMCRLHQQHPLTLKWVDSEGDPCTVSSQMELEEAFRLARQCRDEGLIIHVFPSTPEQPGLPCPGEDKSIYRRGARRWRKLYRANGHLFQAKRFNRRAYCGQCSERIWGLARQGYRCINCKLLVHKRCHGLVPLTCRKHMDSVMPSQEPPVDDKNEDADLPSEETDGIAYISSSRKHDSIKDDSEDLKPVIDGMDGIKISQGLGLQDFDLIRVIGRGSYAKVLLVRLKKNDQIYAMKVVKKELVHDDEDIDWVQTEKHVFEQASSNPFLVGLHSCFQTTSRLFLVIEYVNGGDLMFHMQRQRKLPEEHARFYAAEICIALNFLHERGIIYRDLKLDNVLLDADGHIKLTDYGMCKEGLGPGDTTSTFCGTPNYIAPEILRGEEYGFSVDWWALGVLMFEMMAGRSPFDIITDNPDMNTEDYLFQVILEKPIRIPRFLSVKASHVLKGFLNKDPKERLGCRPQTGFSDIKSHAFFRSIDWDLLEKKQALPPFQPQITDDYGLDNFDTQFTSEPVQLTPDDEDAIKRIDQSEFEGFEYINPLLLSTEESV
Sequence of Tyrosine-protein kinase ITK/TSK (Q08881 whole entry): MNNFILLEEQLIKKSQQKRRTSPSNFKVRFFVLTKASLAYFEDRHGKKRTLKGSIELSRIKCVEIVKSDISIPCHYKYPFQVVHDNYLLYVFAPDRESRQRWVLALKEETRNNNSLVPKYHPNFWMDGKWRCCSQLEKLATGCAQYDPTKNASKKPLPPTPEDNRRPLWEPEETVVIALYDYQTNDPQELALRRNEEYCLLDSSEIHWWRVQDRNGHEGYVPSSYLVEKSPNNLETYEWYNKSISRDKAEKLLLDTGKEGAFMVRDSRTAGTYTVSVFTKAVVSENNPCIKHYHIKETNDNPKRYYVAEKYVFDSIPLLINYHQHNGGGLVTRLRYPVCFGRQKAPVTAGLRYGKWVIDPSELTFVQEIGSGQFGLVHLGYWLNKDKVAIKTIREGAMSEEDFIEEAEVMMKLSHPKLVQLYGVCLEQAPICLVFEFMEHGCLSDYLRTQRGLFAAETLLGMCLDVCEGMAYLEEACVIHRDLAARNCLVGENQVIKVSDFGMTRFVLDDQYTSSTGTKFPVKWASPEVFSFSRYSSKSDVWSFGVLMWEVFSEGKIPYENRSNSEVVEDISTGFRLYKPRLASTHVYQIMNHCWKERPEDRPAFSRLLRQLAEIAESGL
Sequence of Inhibitor of NF-kappa-B kinase (IKK) (O14920 whole entry): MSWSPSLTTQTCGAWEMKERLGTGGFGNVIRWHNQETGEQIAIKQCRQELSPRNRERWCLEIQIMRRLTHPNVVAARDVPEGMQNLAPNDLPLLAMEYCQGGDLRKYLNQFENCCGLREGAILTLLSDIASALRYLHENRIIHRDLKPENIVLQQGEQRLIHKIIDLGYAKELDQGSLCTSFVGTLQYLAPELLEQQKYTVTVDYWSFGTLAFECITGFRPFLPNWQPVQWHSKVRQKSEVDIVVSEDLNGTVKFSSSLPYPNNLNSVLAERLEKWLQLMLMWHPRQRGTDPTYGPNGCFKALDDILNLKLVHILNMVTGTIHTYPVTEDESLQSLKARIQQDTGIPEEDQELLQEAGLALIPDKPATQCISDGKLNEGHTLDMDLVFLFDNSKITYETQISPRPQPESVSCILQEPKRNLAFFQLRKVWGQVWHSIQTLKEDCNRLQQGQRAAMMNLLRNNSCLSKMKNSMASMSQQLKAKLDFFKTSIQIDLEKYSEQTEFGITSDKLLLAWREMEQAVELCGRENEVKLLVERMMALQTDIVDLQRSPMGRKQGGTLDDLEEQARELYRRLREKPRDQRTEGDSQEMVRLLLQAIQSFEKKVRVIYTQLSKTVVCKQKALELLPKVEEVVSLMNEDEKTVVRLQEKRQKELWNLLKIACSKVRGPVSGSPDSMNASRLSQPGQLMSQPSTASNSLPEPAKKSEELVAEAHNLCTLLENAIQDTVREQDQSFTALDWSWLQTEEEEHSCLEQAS
Sequence of Inhibitor of NF-kappa-B kinase (IKK) (O15111 whole entry): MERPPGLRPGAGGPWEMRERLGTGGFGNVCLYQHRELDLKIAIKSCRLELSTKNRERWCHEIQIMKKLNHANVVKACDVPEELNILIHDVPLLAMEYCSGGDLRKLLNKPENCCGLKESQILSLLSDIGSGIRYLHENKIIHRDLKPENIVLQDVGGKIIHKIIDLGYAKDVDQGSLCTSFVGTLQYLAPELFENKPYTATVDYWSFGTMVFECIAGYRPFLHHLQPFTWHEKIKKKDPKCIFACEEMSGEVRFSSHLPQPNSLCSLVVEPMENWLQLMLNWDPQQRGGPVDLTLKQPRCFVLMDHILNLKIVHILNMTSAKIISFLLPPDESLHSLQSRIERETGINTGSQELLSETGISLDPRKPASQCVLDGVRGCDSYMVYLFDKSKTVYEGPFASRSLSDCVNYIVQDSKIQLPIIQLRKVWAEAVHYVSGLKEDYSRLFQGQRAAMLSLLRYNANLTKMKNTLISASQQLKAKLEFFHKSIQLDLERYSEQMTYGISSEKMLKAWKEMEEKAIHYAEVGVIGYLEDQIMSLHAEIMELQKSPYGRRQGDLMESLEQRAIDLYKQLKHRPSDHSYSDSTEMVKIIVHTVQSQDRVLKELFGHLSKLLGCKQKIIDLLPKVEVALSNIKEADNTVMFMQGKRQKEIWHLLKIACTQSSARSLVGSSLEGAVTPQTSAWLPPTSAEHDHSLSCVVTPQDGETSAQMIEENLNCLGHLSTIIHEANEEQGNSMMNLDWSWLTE
Sequence of Inhibitor of NF-kappa-B kinase (IKK) (Q9Y6K9 whole entry): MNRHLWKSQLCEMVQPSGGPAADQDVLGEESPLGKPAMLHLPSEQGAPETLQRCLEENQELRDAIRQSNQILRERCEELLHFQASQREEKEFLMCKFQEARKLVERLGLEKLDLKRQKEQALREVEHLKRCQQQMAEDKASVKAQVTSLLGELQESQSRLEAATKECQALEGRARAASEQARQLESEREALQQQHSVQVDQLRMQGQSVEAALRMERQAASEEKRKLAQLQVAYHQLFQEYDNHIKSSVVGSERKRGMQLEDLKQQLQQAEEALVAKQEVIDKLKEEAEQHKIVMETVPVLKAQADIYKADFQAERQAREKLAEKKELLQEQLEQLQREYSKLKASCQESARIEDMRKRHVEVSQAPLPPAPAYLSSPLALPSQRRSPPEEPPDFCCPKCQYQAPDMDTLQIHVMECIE
Sequence of Dual specificity mitogen-activated protein kinase kinase 1 (Q02750 whole entry): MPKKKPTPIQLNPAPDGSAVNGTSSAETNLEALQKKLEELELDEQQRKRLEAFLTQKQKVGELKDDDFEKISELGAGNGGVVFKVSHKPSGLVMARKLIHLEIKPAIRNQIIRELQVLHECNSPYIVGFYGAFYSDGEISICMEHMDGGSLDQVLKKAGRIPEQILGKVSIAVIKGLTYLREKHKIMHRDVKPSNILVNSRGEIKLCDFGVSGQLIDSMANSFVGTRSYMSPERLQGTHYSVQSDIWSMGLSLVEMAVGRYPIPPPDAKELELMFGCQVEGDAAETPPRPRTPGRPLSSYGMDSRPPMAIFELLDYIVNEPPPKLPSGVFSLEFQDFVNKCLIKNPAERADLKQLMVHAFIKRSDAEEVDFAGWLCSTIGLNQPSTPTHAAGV

Structure (SMILES): O=C(NC1CC1)c1ccc(F)c(CCc2cnc(Nc3ccccn3)s2)c1
IC50 (HUVEC): 5 nM
IC50 (L2987 [1]): > 2500 nM

Structure (SMILES): CONC(=O)c1cccc(CSc2cnc(Nc3ccccn3)s2)c1
IC50 (HUVEC): 110 nM
IC50 (L2987 [1]): > 2500 nM

Structure (SMILES): O=C(NCCN1CCOCC1)c1ccc(F)c(NCc2cnc(Nc3ccccn3)s2)c1
IC50 (L2987 [1]): > 2500 nM

Structure (SMILES): CNC(=O)c1ccc(F)c(NCc2cnc(Nc3ccccn3)s2)c1
IC50 (HUVEC): 20 nM
IC50 (L2987 [1]): > 2500 nM

Structure (SMILES): O=C(NC1CC1)c1ccc(F)c(NCc2cnc(Nc3ccccn3)s2)c1
IC50 (HUVEC): 14 nM
IC50 (L2987 [1]): > 2500 nM

AUC (Rattus norvegicus): 202 µM·h
Vd [4]: 1.1 L/kg
IC50 [5]: 40 nM
IC50 [6]: > 40000 nM
bioavailability [7]: 100%
IC50 [8]: > 50000 nM
IC50 [9]: > 50000 nM
IC50 (MAP kinase p38): > 5000 nM
IC50 [10]: > 10000 nM
Cmax [11]: 148 µM
clearance [12]: 13.6 mL/min/kg
MRT [14]: 3.4 h
clearance [15]: 3.9 mL/min/kg
bioavailability [16]: 52%
IC50 [18]: > 5000 nM
IC50 [19]: > 40000 nM
Tmax [20]: 0.5 h
IC50 [21]: > 10000 nM
Cmax [22]: 44 µM
Vd [23]: 1.7 L/kg
MRT [25]: 7.9 h
IC50 [26]: > 40000 nM
AUC (Cynomolgus monkey [27]): 28.5 µM·h
IC50 [28]: > 50000 nM
bioavailability [29]: 100%
IC50 [30]: > 10000 nM
Tmax [31]: 0.75 h
half-life [32]: 7.1 h
IC50 [33]: > 25000 nM
IC50 (SRSF protein kinase 1): > 10000 nM
AUC (Mus musculus): 649 µM·h
IC50 [35]: > 50000 nM
IC50 [38]: > 50000 nM
IC50 [39]: > 40000 nM
IC50 [40]: 23 nM
MRT [41]: 3.5 h
IC50 [42]: > 5000 nM
Cmax [44]: 8 µM
Vss (Cynomolgus monkey [45]): 1.6 L/kg
IC50 [46]: 370 nM
IC50 [47]: > 5000 nM
IC50 [48]: 200 nM
half-life [49]: 1.7 h
half-life [50]: 2.2 h
IC50 [51]: 400 nM
Tmax [52]: 2 h
clearance [53]: 11.8 mL/min/kg
IC50 [54]: > 5000 nM
Structure (SMILES): O=C(NC1CC1)c1cc(NCc2cnc(Nc3ccccn3)s2)c(F)cc1F
IC50 [2]: 16600 nM
inhibition in vivo at 90 mg/kg (L2987 [3]): 55%
IC50 (HUVEC): 25 nM
inhibition in vivo at 12.5 mg/kg (HCT-116 [13]): 21%
inhibition in vivo at 180 mg/kg (L2987 [17]): 67%
inhibition in vivo at 50 mg/kg (HCT-116 [24]): 64%
inhibition in vivo at 25 mg/kg (HCT-116 [34]): 51%
inhibition in vivo at 60 mg/kg (L2987 [36]): 16%
inhibition in vivo at 25 mg/kg (L2987 [37]): 23%
IC50 (L2987 [1]): > 2500 nM
inhibition in vivo at 50 mg/kg (L2987 [43]): 67%

Structure (SMILES): O=C(NCc1ccccn1)c1ccc(F)c(NCc2cnc(Nc3ccccn3)s2)c1
IC50 (HUVEC): 53 nM
IC50 (L2987 [1]): > 2500 nM

Structure (SMILES): CNC(=O)c1cc(NCc2cnc(Nc3ccccn3)s2)c(F)cc1F
IC50 (HUVEC): 52 nM
IC50 (L2987 [1]): > 2500 nM

Structure (SMILES): CNC(=O)c1cccc(CSc2cnc(Nc3ccccn3)s2)c1
IC50 (L2987 [1]): > 2500 nM

Structure (SMILES): CNC(=O)c1cccc(NCc2cnc(Nc3ccccn3)s2)c1
IC50 (L2987 [1]): > 2500 nM

Structure (SMILES): O=C(NCc1ccccc1)c1ccc(F)c(NCc2cnc(Nc3ccccn3)s2)c1
IC50 (HUVEC): 120 nM
IC50 (L2987 [1]): > 2500 nM

Structure (SMILES): O=C(NC1CCCC1)c1ccc(F)c(NCc2cnc(Nc3ccccn3)s2)c1
IC50 (L2987 [1]): > 2500 nM

IC50 [10]: 50 nM
IC50 [40]: 1900 nM
Structure (SMILES): COc1ccc(C(=O)Nc2ncc(SCc3ncc(C(C)(C)C)o3)s2)cc1OC

Source: ChEMBL document CHEMBL1138058, “Discovery and evaluation of N-cyclopropyl- 2,4-difluoro-5-((2-(pyridin-2-ylamino)thiazol-5-ylmethyl)amino)benzamide (BMS-605541), a selective and orally efficacious inhibitor of vascular endothelial growth factor receptor-2” (J Med Chem, 2006)
